Laboratory results as given in ChEMBL document CHEMBL3414438, “5'-C-Ethyl-tetrazolyl-N(6)-substituted adenosine and 2-chloro-adenosine derivatives as highly potent dual acting A1 adenosine receptor agonists and A3 adenosine receptor antagonists” (J Med Chem, 2015).
Activity calls are given as the source filed them. No cut-off for these calls is given here.

Legend:
Adenosine receptor A1 [1] = target: T1, Adenosine receptor A1 (Homo sapiens, UniProt P30542); assay: Displacement of [3H]-CCPA from human recombinant adenosine A1 receptor transfected in CHO cells; type: cell-based
T1 sequence (P30542 whole entry): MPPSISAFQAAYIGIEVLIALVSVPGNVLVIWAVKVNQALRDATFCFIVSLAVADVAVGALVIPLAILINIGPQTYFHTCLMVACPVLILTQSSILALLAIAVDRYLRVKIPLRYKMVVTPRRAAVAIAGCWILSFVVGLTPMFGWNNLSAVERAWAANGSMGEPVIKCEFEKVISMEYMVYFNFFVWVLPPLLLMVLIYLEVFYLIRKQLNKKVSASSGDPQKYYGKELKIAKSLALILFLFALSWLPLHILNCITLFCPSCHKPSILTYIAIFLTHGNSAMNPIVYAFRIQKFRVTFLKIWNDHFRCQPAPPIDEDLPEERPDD

Adenosine receptor A2a [2] = target: T2, Adenosine receptor A2a (Homo sapiens, UniProt P29274); assay: Displacement of [3H]-NECA from human recombinant adenosine A2A receptor transfected in CHO cells; type: cell-based
T2 sequence (P29274 whole entry): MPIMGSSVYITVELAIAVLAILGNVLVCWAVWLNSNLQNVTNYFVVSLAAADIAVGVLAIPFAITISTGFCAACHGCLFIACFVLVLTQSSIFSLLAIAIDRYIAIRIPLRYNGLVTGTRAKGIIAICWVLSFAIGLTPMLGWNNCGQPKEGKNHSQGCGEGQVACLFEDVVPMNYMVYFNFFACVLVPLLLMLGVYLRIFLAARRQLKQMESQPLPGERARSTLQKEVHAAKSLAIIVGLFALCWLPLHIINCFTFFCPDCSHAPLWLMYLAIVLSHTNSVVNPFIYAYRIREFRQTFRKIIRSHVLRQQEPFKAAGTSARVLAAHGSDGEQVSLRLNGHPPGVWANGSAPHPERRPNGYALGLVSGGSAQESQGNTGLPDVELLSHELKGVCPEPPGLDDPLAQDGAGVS

Adenosine receptor A2a [3] = target: T2, Adenosine receptor A2a; assay: Agonist activity at human recombinant adenosine A2A receptor transfected in CHO cells assessed as induction of adenylyl cyclase activity; type: functional, cell-based
Adenosine receptor A2b = target: T3, Adenosine receptor A2b (Homo sapiens, UniProt P29275); assay: (§1) Agonist activity at human recombinant adenosine A2B receptor transfected in CHO cells assessed as induction of adenylyl cyclase activity; type: functional, cell-based
T3 sequence (P29275 whole entry): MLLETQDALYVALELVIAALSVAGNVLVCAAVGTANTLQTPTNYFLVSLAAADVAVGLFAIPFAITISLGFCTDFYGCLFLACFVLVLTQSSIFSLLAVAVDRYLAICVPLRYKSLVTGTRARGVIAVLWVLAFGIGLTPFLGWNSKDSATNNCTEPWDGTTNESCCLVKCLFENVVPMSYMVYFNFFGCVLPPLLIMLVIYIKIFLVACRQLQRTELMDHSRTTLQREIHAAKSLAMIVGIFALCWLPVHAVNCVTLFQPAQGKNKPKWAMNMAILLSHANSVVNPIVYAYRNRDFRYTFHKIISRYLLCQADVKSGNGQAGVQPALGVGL

Adenosine receptor A3 [4] = target: T4, Adenosine receptor A3 (Homo sapiens, UniProt P0DMS8); assay: Antagonist activity at human recombinant adenosine A3 receptor transfected in CHO cells assessed as reversal of NECA-induced inhibition of forskolin-induced adenylyl cyclase activity; type: functional, cell-based
T4 sequence (P0DMS8 whole entry): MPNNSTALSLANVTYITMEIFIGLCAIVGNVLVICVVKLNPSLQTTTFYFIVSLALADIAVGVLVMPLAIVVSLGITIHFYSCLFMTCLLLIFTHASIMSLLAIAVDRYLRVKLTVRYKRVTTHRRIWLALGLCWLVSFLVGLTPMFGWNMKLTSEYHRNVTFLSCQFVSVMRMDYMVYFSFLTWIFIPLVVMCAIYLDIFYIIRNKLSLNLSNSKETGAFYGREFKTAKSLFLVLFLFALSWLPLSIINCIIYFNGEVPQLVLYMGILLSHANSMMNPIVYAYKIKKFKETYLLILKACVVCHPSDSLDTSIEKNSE

[5] = target: T5, Adenosine receptor A2b (Homo sapiens) (UniProt P29275); assay: Partial agonist activity at human recombinant adenosine A2B receptor transfected in CHO cells assessed as induction of adenylyl cyclase activity relative to NECA; type: functional, cell-based
T5 sequence (whole entry): T3 sequence (P29275 whole entry)

Adenosine receptor A3 [6] = target: T4, Adenosine receptor A3; assay: Displacement of [3H]-HEMADO from human recombinant adenosine A3 receptor transfected in CHO cells; type: cell-based
Adenosine receptor A1 [7] = target: T1, Adenosine receptor A1; assay: (§2) Agonist activity at human recombinant adenosine A1 receptor transfected in CHO cells assessed as inhibition of forskolin-induced adenylyl cyclase activity; type: functional, cell-based
[8] = target: T6, Adenosine receptor A1 (Homo sapiens) (UniProt P30542); assay: as §2; type: functional, cell-based
T6 sequence (whole entry): T1 sequence (P30542 whole entry)

[9] = target: T5, Adenosine receptor A2b (Homo sapiens); assay: as §1; type: functional, cell-based
Homo sapiens [10] = organism: Homo sapiens; assay: Selectivity ratio of Ki for human recombinant adenosine A2A receptor to Ki for human recombinant adenosine A1 receptor
Homo sapiens [11] = organism: Homo sapiens; assay: Selectivity ratio of Ki for human recombinant adenosine A2A receptor to Ki for human recombinant adenosine A3 receptor

Ki (Adenosine receptor A1 [1]) [nM] | Ki (Adenosine receptor A2a [2]) [nM] | EC50 (Adenosine receptor A2a [3]) [nM] | EC50 (Adenosine receptor A2b) [nM] | EC50 (Adenosine receptor A3 [4]) [nM] | Efficacy [5] [%] | Ki (Adenosine receptor A3 [6]) [nM] | EC50 (Adenosine receptor A1 [7]) [nM] | Efficacy [8] [%] | Efficacy (Adenosine receptor A2a [3]) [%] | Efficacy [9] [%] | Activity [5] [%] | Ratio Ki (Homo sapiens [10]) | Ratio Ki (Homo sapiens [11]) | inhibition [8] | Structure (SMILES)
2.39 | 108 | 9.04 | 834 | 13.3 | 76 | 0.588 | 64.9 | > 90 |  |  |  |  |  |  | CCn1nnc([C@H]2O[C@@H](n3cnc4c(NCc5ccccc5I)nc(Cl)nc43)[C@H](O)[C@@H]2O)n1
0.432 | 77.5 | 8.4 | 530 | 33.9 |  | 2.61 | 10.2 | > 90 | > 90 | > 90 |  |  |  |  | CCn1nnc([C@H]2O[C@@H](n3cnc4c(Nc5ccc(Cl)cc5F)ncnc43)[C@H](O)[C@@H]2O)n1
0.728 | 164 | 12.8 | > 30000 | 721 |  | 16.1 | 10.2 | > 90 | > 90 | > 90 |  |  |  |  | CCn1nnc([C@H]2O[C@@H](n3cnc4c(N[C@H]5C[C@@H]6CC[C@@H]5C6)nc(Cl)nc43)[C@H](O)[C@@H]2O)n1 (racemic)
8.59 | 3350 | 238 | 3510 | 7.69 |  | 0.429 | 250 | > 90 | > 90 |  | 75 | 390 | 7800 |  | CCn1nnc([C@H]2O[C@@H](n3cnc4c(NC)nc(Cl)nc43)[C@H](O)[C@@H]2O)n1
1.67 | 223 | 28.8 |  | 37 |  | 4.71 | 64.8 | > 90 | > 90 | > 90 |  |  |  |  | CCn1nnc([C@H]2O[C@@H](n3cnc4c(Nc5ccc(Cl)cc5F)nc(Cl)nc43)[C@H](O)[C@@H]2O)n1
0.682 | 93 | 9.75 | 675 | 51.5 |  | 7.97 | 8.61 | > 90 | > 90 | > 90 |  |  |  |  | CCn1nnc([C@H]2O[C@@H](n3cnc4c(NC5CC5)ncnc43)[C@H](O)[C@@H]2O)n1
1.06 | 870 | 33.2 | 3150 | 104 |  | 9.62 | 7.42 | > 90 | > 90 | > 90 |  |  |  |  | CCn1nnc([C@H]2O[C@@H](n3cnc4c(NC5CCCO5)nc(Cl)nc43)[C@H](O)[C@@H]2O)n1 (stereo partly specified)
0.311 | 62.2 | 5.31 | 1150 | 39.5 |  | 3.9 | 3.62 | > 90 | > 90 | > 90 |  |  |  |  | CCn1nnc([C@H]2O[C@@H](n3cnc4c(NC5CC5)nc(Cl)nc43)[C@H](O)[C@@H]2O)n1
 |  |  |  |  |  |  |  |  |  |  |  |  |  | Active | OC[C@H]1O[C@@H](n2cnc3c(NC4CCCC4)nc(Cl)nc32)[C@H](O)[C@@H]1O
3.56 | 778 | 1710 | 1480 | 6.38 |  | 0.478 | 97.2 | > 90 | > 90 | > 90 |  |  |  |  | CCn1nnc([C@H]2O[C@@H](n3cnc4c(NC)ncnc43)[C@H](O)[C@@H]2O)n1
1.23 | 554 | 25.1 | 1340 | 61.9 |  | 15.4 | 8.74 | > 90 | > 90 | > 90 |  |  |  |  | CCn1nnc([C@H]2O[C@@H](n3cnc4c(NC5CCCO5)ncnc43)[C@H](O)[C@@H]2O)n1 (stereo partly specified)
0.919 | 8.12 | 2.36 | 347 | 93.6 |  | 3.86 | 26.3 | > 90 | > 90 | > 90 |  |  |  |  | CCn1nnc([C@H]2O[C@@H](n3cnc4c(N)ncnc43)[C@H](O)[C@@H]2O)n1
0.453 | 64.5 | 7.71 | 1010 | 83.9 |  | 8.85 | 4.66 | > 90 | > 90 | > 90 |  |  |  |  | CCn1nnc([C@H]2O[C@@H](n3cnc4c(N[C@H]5C[C@@H]6CC[C@@H]5C6)ncnc43)[C@H](O)[C@@H]2O)n1 (racemic)

Structure (SMILES) | Ki (Adenosine receptor A1 [1]) [nM] | Ki (Adenosine receptor A2a [2]) [nM] | EC50 (Adenosine receptor A2a [3]) [nM] | EC50 (Adenosine receptor A2b) [nM] | EC50 (Adenosine receptor A3 [4]) [nM] | Efficacy [5] [%] | Ki (Adenosine receptor A3 [6]) [nM] | EC50 (Adenosine receptor A1 [7]) [nM] | Efficacy [8] [%] | Efficacy (Adenosine receptor A2a [3]) [%] | Efficacy [9] [%] | Activity [5] [%] | Ratio Ki (Homo sapiens [10]) | Ratio Ki (Homo sapiens [11]) | inhibition [8]
CCn1nnc([C@H]2O[C@@H](n3cnc4c(N)nc(Cl)nc43)[C@H](O)[C@@H]2O)n1 | 0.966 | 20.7 | 3.84 | 542 | 31.7 |  | 1.8 | 19.8 | > 90 | > 90 | > 90 |  |  |  | 
